Data on 24 compounds can be found in patent US20230242544A1, “QUINAZOLINE COMPOUNDS, PREPARATION METHODS AND USES THEREOF” (INVENTISBIO CO., LTD., priority 2020, published 2023).

In one test the target is Ba/F3_KRAS^G12D cells (Homo sapiens, UniProt P01116, G12D, cells depend on it). The test can be described thus: Ba/F3 KRAS G12D cell proliferation assay (CellTiter-Glo). The class given is cell-based. As to conditions: treated for 3 days, cell-titer Glo, cell growth inhibition, read-out: BaF3_KRAS^G12D IC50. The method, boiled down:
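KRAS G12D-transduced Ba/F3 cells, IL3-independent and puromycin-selected, seeded at 5×10^3/well overnight, then given serially diluted compound for 3 days. Proliferation read by CellTiter-Glo luminescence. IC50 from a four-parameter logistic fit with Hill slope.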

Test [1] deals with recombinant human KRAS^G12D protein (Homo sapiens, UniProt P01116, G12D). The test is described as follows: Temperature-dependent Fluorescence (TdF) KRAS G12D protein binding assay. As to conditions: 6 μM KRAS^G12D protein, 10 μM compound, Sypro Orange; Kd calculated from the fluorescent shift. The method, boiled down:
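Thermal-shift binding with Sypro Orange: 6 μM KRAS^G12D and 10 μM compound in 25 mM HEPES pH 7.5, 150 mM NaCl, 10 mM MgCl2, 1% DMSO. Binding read as ΔTm with versus without compound; Kd calculated from the degree of fluorescence shift.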

Each structure is given as a SMILES string. pKd: −log10 of the molar value.

Sequence of recombinant human KRAS^G12D protein (P01116 1-188 isoform P01116-2 G12D): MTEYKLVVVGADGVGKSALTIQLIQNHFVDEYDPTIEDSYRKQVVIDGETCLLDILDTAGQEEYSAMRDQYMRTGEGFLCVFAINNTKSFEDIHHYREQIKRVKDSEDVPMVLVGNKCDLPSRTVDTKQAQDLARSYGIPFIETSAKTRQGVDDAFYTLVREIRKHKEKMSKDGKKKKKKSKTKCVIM
Sequence of Ba/F3_KRAS^G12D cells (P01116 whole entry G12D): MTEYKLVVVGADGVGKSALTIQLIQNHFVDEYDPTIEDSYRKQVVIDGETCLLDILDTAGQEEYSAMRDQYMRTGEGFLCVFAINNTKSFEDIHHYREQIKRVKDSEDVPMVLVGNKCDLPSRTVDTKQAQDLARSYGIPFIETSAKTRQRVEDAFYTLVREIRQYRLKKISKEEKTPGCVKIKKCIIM

As a reminder, the pKd is the negative decadic logarithm of the Kd, by convention in mol/L. Turning to `Cc1ccc2[nH]ncc2c1-c1c(C#N)cc2c(N3CC4CCC(C3)N4)nc(OC[C@@]34CCCN3C[C@H](F)C4)nc2c1F` [Compound 92], the GI50 on Ba/F3_KRAS^G12D cells was below 500 nM. The pKd in test [1] was above 6.30.

`N#CC[C@H]1CN(c2nc(OC[C@@]34CCCN3C[C@H](F)C4)nc3c(F)c(-c4cc(O)cc5ccccc45)c(Cl)cc23)CCN1` [Compound 96]: at Ba/F3_KRAS^G12D cells, the GI50 is 500 to 5000 nM. Further, the pKd in test [1] is below 5.30.

Turning to `Cc1cc(F)c2sc(N)nc2c1-c1c(Cl)cc2c(N3CC4CCC(C3)N4)nc(OC[C@@]34CCCN3C[C@H](F)C4)nc2c1F` [Compound 100], the GI50 on Ba/F3_KRAS^G12D cells is 500 to 5000 nM. For the same compound, in test [1], the pKd was above 6.30.

With `Cc1cc(-c2c(Cl)cc3c(N4CC5CCC(C4)N5)nc(OC[C@@H]4CCCN4C)nc3c2F)cc2[nH]ncc12` [Compound 109], the GI50 on Ba/F3_KRAS^G12D cells lay within 500 to 5000 nM. Moreover, in test [1], the negative-log Kd (pKd) was below 5.30.

`Nc1cc2ccccc2c(-c2c(Cl)cc3c(N4CC5CCC(C4)N5)nc(OCC45CCCN4CCC5)nc3c2F)n1` [Compound 116]: the GI50 on Ba/F3_KRAS^G12D cells is above 5000 nM. Also, the pKd in test [1] is 5.30 to 6.30.

For the compound `CN1CCC[C@H]1COc1nc(-c2cnc(N)s2)c2cc(Cl)c(-c3cc(O)cc4cccc(Cl)c34)c(F)c2n1` [Compound 121], on Ba/F3_KRAS^G12D cells, the GI50 is above 5000 nM. The pKd in test [1] is below 5.30.

For the compound `CNC(=O)c1cc2c(N3CC4CCC(C3)N4)nc(OC[C@@]34CCCN3C[C@H](F)C4)nc2c(F)c1-c1cc(O)cc2cccc(Cl)c12` [Compound 122], the GI50 at Ba/F3_KRAS^G12D cells is above 5000 nM. In addition, the pKd in test [1] is above 6.30.

Consider `Oc1cc(-c2c(OCC3CC3)cc3c(N4CC5CCC(C4)N5)nc(OC[C@@]45CCCN4C[C@H](F)C5)nc3c2F)c2c(Cl)cccc2c1` [Compound 124], for which, at Ba/F3_KRAS^G12D cells, the GI50 was below 500 nM. Also, the pKd in test [1] is above 6.30.

`Oc1cc(-c2c(Cl)cc3c(N4CCNCC4)nc(OC[C@@]45CCCN4C[C@H](F)C5)nc3c2F)c2ccccc2c1` [Compound 126]: at Ba/F3_KRAS^G12D cells, the GI50 is 500 to 5000 nM. In addition, the pKd in test [1] was 5.30 to 6.30.

Consider `C[C@H]1CNCCN1c1nc(OC[C@@]23CCCN2C[C@H](F)C3)nc2c(F)c(-c3cc(O)cc4ccccc34)c(Cl)cc12` [Compound 127], for which the GI50 at Ba/F3_KRAS^G12D cells fell in the range of 500 to 5000 nM. Besides, in test [1], the pKd is 5.30 to 6.30.

For `C[C@@H]1CN(c2nc(OC[C@@]34CCCN3C[C@H](F)C4)nc3c(F)c(-c4cc(O)cc5ccccc45)c(Cl)cc23)[C@@H](C)CN1` [Compound 128], on Ba/F3_KRAS^G12D cells, the GI50 lay within 500 to 5000 nM. Moreover, the negative-log Kd (pKd) in test [1] is below 5.30.

In the case of `N#Cc1cc2c(N3CC4CCC(C3)N4)nc(OC[C@@]34CCCN3C[C@H](F)C4)nc2c(F)c1-c1cc(O)cc2ccc(F)c(Cl)c12` [Compound 129], at Ba/F3_KRAS^G12D cells, the GI50 was below 500 nM. For the same compound, the pKd in test [1] is above 6.30.

Consider `Cc1cc(N)nc(-c2c(Cl)cc3c(N4CC5CCC(C4)N5)nc(OC[C@@H]4CCCN4C)nc3c2F)c1` [Compound 130], for which the GI50 at Ba/F3_KRAS^G12D cells was above 5000 nM. The pKd in test [1] is below 5.30.

In the case of `Cc1cccc2cccc(-c3c(Cl)cc4c(N5CC6CCC(C5)N6)nc(OC[C@@]56CCCN5C[C@H](F)C6)nc4c3F)c12` [Compound 131], the GI50 on Ba/F3_KRAS^G12D cells was in the range of 500 to 5000 nM. Moreover, in test [1], the pKd was above 6.30.

As to `Nc1nc2c(-c3c(Cl)cc4c(N5CC6CCC(C5)N6)nc(OC[C@@]56CCCN5C[C@H](F)C6)nc4c3F)cc(C(F)(F)F)cc2s1` [Compound 132], the GI50 at Ba/F3_KRAS^G12D cells fell in the range of 500 to 5000 nM. Also, in test [1], the pKd is above 6.30.

On to `Cc1cc(N)nc(-c2c(Cl)cc3c(N4CCN[C@@H](CC#N)C4)nc(OC[C@@H]4C[C@@H](F)CN4C)nc3c2F)c1C(F)(F)F` [Compound 135], for which the GI50 on Ba/F3_KRAS^G12D cells was above 5000 nM. The negative-log Kd (pKd) in test [1] is below 5.30.

Turning to `Cc1cccc2cc(F)cc(-c3c(Cl)cc4c(N5CC6CCC(C5)N6)nc(OC[C@@]56CCCN5C[C@H](F)C6)nc4c3F)c12` [Compound 137], the GI50 on Ba/F3_KRAS^G12D cells was 500 to 5000 nM. In test [1], the negative logarithm of the Kd (pKd) is above 6.30.

Turning to `Nc1nc2c(-c3c(Cl)cc4c(N5CC6CCC(C5)N6)ncnc4c3F)ccc(F)c2s1` [Compound 140], the GI50 on Ba/F3_KRAS^G12D cells was 500 to 5000 nM. For the same compound, the pKd in test [1] is 5.30 to 6.30.

As to `Cc1cc(N)nc(-c2c(Cl)cc3c(N4CC5CCC(C4)N5)nc(OC[C@@]45CCCN4C[C@H](F)C5)nc3c2F)c1C(F)(F)F` [Compound 142], the GI50 on Ba/F3_KRAS^G12D cells is below 500 nM. In test [1], the negative logarithm of the Kd (pKd) was above 6.30.

Consider `Nc1nc2c(-c3c(Cl)cc4c(N5CC6CCC(C5)N6)nc(OC[C@@]56CCCN5C[C@H](F)C6)nc4c3F)ccc(C(F)(F)F)c2s1` [Compound 143], for which the GI50 at Ba/F3_KRAS^G12D cells fell in the range of 500 to 5000 nM. Moreover, in test [1], the negative logarithm of the Kd (pKd) was above 6.30.

Consider `COc1nc(N2CC3CCC(C2)N3)c2cc(Cl)c(-c3nc(N)cc(C)c3C(F)(F)F)c(F)c2n1` [Compound 144], for which the GI50 at Ba/F3_KRAS^G12D cells was 500 to 5000 nM. In addition, the negative-log Kd (pKd) in test [1] is below 5.30.

For the compound `C#Cc1c(F)ccc2cc(O)cc(-c3c(Cl)cc4c(N5CC6CCC(C5)N6)nc(OC[C@@]56CCCN5C[C@H](F)C6)nc4c3F)c12` [Compound 146], at Ba/F3_KRAS^G12D cells, the GI50 was below 500 nM. Also, the pKd in test [1] is above 6.30.

Take `C#Cc1c(F)ccc2cc(O)cc(-c3c(OC)cc4c(N5CC6CCC(C5)N6)nc(OC[C@@]56CCCN5C[C@H](F)C6)nc4c3F)c12` [Compound 163]: the GI50 on Ba/F3_KRAS^G12D cells was below 500 nM. In test [1], the pKd is above 6.30.

With `C#Cc1c(F)ccc2cc(O)cc(-c3cc(Cl)c4c(N5CC6CCC(C5)N6)nc(OC[C@@]56CCCN5C[C@H](F)C6)nc4c3F)c12` [Compound 168], on Ba/F3_KRAS^G12D cells, the GI50 was below 500 nM. The pKd in test [1] was above 6.30.
